In patent publication US8623859B2, “Bradykinin B1 antagonists” (Evotec AG, priority 2008, dated 2014) one finds IC50 data, which are given here for 24 molecules.

As a reminder, the IC50 is the concentration that inhibits the measured activity by half.

Counter-ions that a name gives are not always drawn.

In this test the target is T1, human B1 (Homo sapiens, UniProt P46663).
T1 construct: host or cells: CHO-K1
T1 sequence (P46663 1-353): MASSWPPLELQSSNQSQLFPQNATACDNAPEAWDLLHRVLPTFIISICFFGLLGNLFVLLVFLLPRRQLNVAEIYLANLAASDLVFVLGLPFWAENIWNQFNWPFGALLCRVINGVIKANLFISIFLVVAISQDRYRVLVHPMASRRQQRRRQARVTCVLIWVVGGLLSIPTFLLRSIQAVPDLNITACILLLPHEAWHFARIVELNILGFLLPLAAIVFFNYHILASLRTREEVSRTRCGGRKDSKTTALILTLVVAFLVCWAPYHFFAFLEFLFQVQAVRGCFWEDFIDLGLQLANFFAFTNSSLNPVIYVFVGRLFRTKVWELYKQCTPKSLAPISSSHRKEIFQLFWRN
Description: Calcium flux assay for Bradykinin B1 antagonist, CHO-K1 cell line expressing human B1. Format: cell-based. The conditions noted are these: CHO-K1 cells expressing human B1, agonist Lys-(Des-Arg)-Bradykinin, read-out: Potency (IC50 value against human B1). In a few lines:
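CHO-K1 cells expressing human B1, loaded with 5 μM Fluo-4AM (2 h, 37° C) in HEPES buffer pH 7.4 with probenecid and 0.1% BSA, were preincubated 30 min at 25° C with compound (8 concentrations, triplicate, 1% DMSO) before B1 agonist addition. Ca2+ fluorescence monitored at 538 nm; background-normalized integrated values plotted against log antagonist concentration.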
On the technique in general: A change in cytosolic calcium serves as a functional read-out for many receptors and channels.

As to `COc1cc(C)c(S(=O)(=O)N(Cc2nc(C(=O)N3CCN(Cc4ccc(N5CCCC5)nc4)CC3)co2)C2CC2)c(C)c1` [Ex 237, N-Cyclopropyl-4-methoxy-2,6-dimethyl-N-{[4-({4-[(6-pyrrolidin-1-ylpyridin-3-yl)methyl]piperazin-1-yl}carbonyl)-1,3-oxazol-2-yl]methyl}benzenesulfonamide trifluoroacetate], the IC50 is less than 10 nM.

Take `COc1cc(C)c(S(=O)(=O)N(Cc2nc(C(=O)N3CCN(CC4CCN(C(=O)OC(C)(C)C)CC4)CC3)co2)C2CC2)c(C)c1` [Ex 238, trifluoroacetate]: the IC50 is 100 to 1000 nM.

For the molecule `COc1cc(C)c(S(=O)(=O)N(Cc2nc(C(=O)N3CCC(C4CCNCC4)CC3)co2)C2CC2)c(C)c1` [Ex 239, N-{[4-(4,4′-Bipiperidin-1-ylcarbonyl)-1,3-oxazol-2-yl]methyl}-N-cyclopropyl-4-methoxy-2,6-dimethylbenzenesulfonamide trifluoroacetate], the IC50 lay within 100 to 1000 nM.

`COc1cc(C)c(S(=O)(=O)N(Cc2nc(C(=O)N3CCC(O)(/C=C/c4cccnc4)CC3)co2)C2CC2)c(C)c1` [Ex 240, N-Cyclopropyl-N-{[4-({4-hydroxy-4-[(E)-2-pyridin-3-ylethenyl]piperidin-1-yl}carbonyl)-1,3-oxazol-2-yl]methyl}-4-methoxy-2,6-dimethylbenzenesulfonamide trifluoroacetate]: the IC50 lay in the range of 10 to 100 nM.

As for `COc1cc(C)c(S(=O)(=O)N(Cc2nc(C(=O)N3CCC(O)(/C=C/c4ccncc4)CC3)co2)C2CC2)c(C)c1` [Ex 241, N-Cyclopropyl-N-{[4-({4-hydroxy-4-[(E)-2-pyridin-4-ylethenyl]piperidin-1-yl}carbonyl)-1,3-oxazol-2-yl]methyl}-4-methoxy-2,6-dimethylbenzenesulfonamide trifluoroacetate], the IC50 is 10 to 100 nM.

On to `CCN1CCN(CCCNC(=O)c2coc(CN(C3CC3)S(=O)(=O)c3c(C)cc(OC)cc3C)n2)CC1` [Ex 242, 2-({Cyclopropyl[(4-methoxy-2,6-dimethylphenyl)sulfonyl]amino}methyl)-N-[3-(4-ethylpiperazin-1-yl)propyl]-1,3-oxazole-4-carboxamide trifluoroacetate], for which the IC50 fell in the range of 10 to 100 nM.

For the molecule `COc1cc(C)c(S(=O)(=O)N(Cc2nc(C(=O)N(C)C3CCC(N4CCN(C)CC4)CC3)co2)C2CC2)c(C)c1` (stereo not drawn) [Ex 243, 2-({Cyclopropyl[(4-methoxy-2,6-dimethylphenyl)sulfonyl]amino}methyl)-N-methyl-N-[4-(4-methylpiperazin-1-yl)cyclohexyl]-1,3-oxazole-4-carboxamide trifluoroacetate], the IC50 was in the range of 10 to 100 nM.

With `COc1cc(C)c(S(=O)(=O)N(Cc2nc(C(=O)N(C)C3CCCC(N4CCN(C)CC4)C3)co2)C2CC2)c(C)c1` (stereo not drawn) [Ex 244, 2-({Cyclopropyl[(4-methoxy-2,6-dimethylphenyl)sulfonyl]amino}methyl)-N-methyl-N-[3-(4-methylpiperazin-1-yl)cyclohexyl]-1,3-oxazole-4-carboxamide], the IC50 is less than 10 nM.

Turning to `COc1cc(C)c(S(=O)(=O)N(Cc2cnc(C(=O)N3CCN(CC4CCN(C)CC4)CC3)o2)C2CC2)c(C)c1` [Ex 245, N-Cyclopropyl-4-methoxy-2,6-dimethyl-N-{[2-({4-[(1-methylpiperidin-4-yl)methyl]piperazin-1-yl}carbonyl)-1,3-oxazol-5-yl]methyl}benzenesulfonamide], the IC50 fell in the range of 100 to 1000 nM.

Consider `COc1cc(C)c(S(=O)(=O)N(Cc2nc(C(=O)N3CCC(O)(COCCN(C)C)CC3)co2)C2CC2)c(C)c1` [Ex 246, N-Cyclopropyl-N-({4-[(4-{[2-(dimethylamino)ethoxy]methyl}-4-hydroxypiperidin-1-yl)carbonyl]-1,3-oxazol-2-yl}methyl)-4-methoxy-2,6-dimethylbenzenesulfonamide trifluoroacetate], for which the half-inhibitory concentration (IC50) lay within 10 to 100 nM.

For the molecule `COc1cc(C)c(S(=O)(=O)N(Cc2nc(C(=O)N3CCC(OC4CCN(C)C4)CC3)co2)C2CC2)c(C)c1` (stereo not drawn) [Ex 247, N-Cyclopropyl-4-methoxy-2,6-dimethyl-N-{[4-({4-[(1-methylpyrrolidin-3-yl)oxy]piperidin-1-yl}carbonyl)-1,3-oxazol-2-yl]methyl}benzenesulfonamide], the IC50 was in the range of 100 to 1000 nM.

Regarding `COc1cc(C)c(S(=O)(=O)N(Cc2nc(C(=O)N3CCC(OC4CCCN(C)C4)CC3)co2)C2CC2)c(C)c1` (stereo not drawn) [Ex 248, N-Cyclopropyl-4-methoxy-2,6-dimethyl-N-{[4-({4-[(1-methylpiperidin-3-yl)oxy]piperidin-1-yl}carbonyl)-1,3-oxazol-2-yl]methyl}benzenesulfonamide trifluoroacetate], the IC50 fell in the range of 10 to 100 nM.

Take `COc1cc(C)c(S(=O)(=O)N(Cc2nc(C(=O)N3CCN(Cc4c[nH]cn4)CC3)co2)C2CC2)c(C)c1` [Ex 249, N-Cyclopropyl-N-[(4-{[4-(1H-imidazol-4-ylmethyl)piperazin-1-yl]carbonyl}-1,3-oxazol-2-yl)methyl]-4-methoxy-2,6-dimethylbenzenesulfonamide]: the IC50 fell in the range of 10 to 100 nM.

As to `COc1cc(C)c(S(=O)(=O)N(Cc2nc(C(=O)N3CCN(Cc4c[nH]c(C)n4)CC3)co2)C2CC2)c(C)c1` [Ex 250, N-Cyclopropyl-4-methoxy-2,6-dimethyl-N-{[4-({4-[(2-methyl-1H-imidazol-4-yl)methyl]piperazin-1-yl}carbonyl)-1,3-oxazol-2-yl]methyl}benzenesulfonamide], the IC50 is less than 10 nM.

Turning to `COc1cc(C)c(S(=O)(=O)N(Cc2nc(C(=O)N3CCN(Cc4cncn4C)CC3)co2)C2CC2)c(C)c1` [Ex 251, N-Cyclopropyl-4-methoxy-2,6-dimethyl-N-{[4-({4-[(1-methyl-1H-imidazol-5-yl)methyl]piperazin-1-yl}carbonyl)-1,3-oxazol-2-yl]methyl}benzenesulfonamide], the half-inhibitory concentration (IC50) was in the range of 100 to 1000 nM.

As for `COc1cc(C)c(S(=O)(=O)N(Cc2nc(C(=O)N3CCN(Cc4ccnc(C)c4)CC3)co2)C2CC2)c(C)c1` [Ex 252, N-Cyclopropyl-4-methoxy-2,6-dimethyl-N-{[4-({4-[(2-methylpyridin-4-yl)methyl]piperazin-1-yl}carbonyl)-1,3-oxazol-2-yl]methyl}benzenesulfonamide], the IC50 is less than 10 nM.

`COc1cc(C)c(S(=O)(=O)N(Cc2nc(C(=O)N3CCN(Cc4cccnc4N)CC3)co2)C2CC2)c(C)c1` [Ex 253, N-{[4-({4-[(2-Aminopyridin-3-yl)methyl]piperazin-1-yl}carbonyl)-1,3-oxazol-2-yl]methyl}-N-cyclopropyl-4-methoxy-2,6-dimethylbenzenesulfonamide]: the IC50 is less than 10 nM.

With `COc1cc(C)c(S(=O)(=O)N(Cc2nc(C(=O)N3CCN(Cc4cnc5ccccc5c4)CC3)co2)C2CC2)c(C)c1` [Ex 254, N-Cyclopropyl-4-methoxy-2,6-dimethyl-N-[(4-{[4-(quinolin-3-ylmethyl)piperazin-1-yl]carbonyl}-1,3-oxazol-2-yl)methyl]benzenesulfonamide], the IC50 is less than 10 nM.

With `COc1cc(C)c(S(=O)(=O)N(Cc2nc(C(=O)N3CCN(Cc4c[nH]nc4C)CC3)co2)C2CC2)c(C)c1` [Ex 255, N-Cyclopropyl-4-methoxy-2,6-dimethyl-N-{[4-({4-[(3-methyl-1H-pyrazol-4-yl)methyl]piperazin-1-yl}carbonyl)-1,3-oxazol-2-yl]methyl}benzenesulfonamide], the IC50 is 10 to 100 nM.

On to `COc1cc(C)c(S(=O)(=O)N(Cc2nc(C(=O)N3CCN(Cc4ccnc(N5CCCC5)c4)CC3)co2)C2CC2)c(C)c1` [Ex 256, N-Cyclopropyl-4-methoxy-2,6-dimethyl-N-{[4-({4-[(2-pyrrolidin-1-ylpyridin-4-yl)methyl]piperazin-1-yl}carbonyl)-1,3-oxazol-2-yl]methyl}benzenesulfonamide], for which the IC50 lay within 100 to 1000 nM.

`COc1cc(C)c(S(=O)(=O)N(Cc2nc(C(=O)N(C)CCOc3ccncc3)co2)C2CC2)c(C)c1` [Ex 257, 2-({Cyclopropyl[(4-methoxy-2,6-dimethylphenyl)sulfonyl]amino}methyl)-N-methyl-N-[2-(pyridin-4-yloxy)ethyl]-1,3-oxazole-4-carboxamide]: the half-inhibitory concentration (IC50) lay in the range of 100 to 1000 nM.

Turning to `COc1cc(C)c(S(=O)(=O)N(C)Cc2nnc(C(=O)N3CCN(CC4CCN(C)CC4)CC3)o2)c(C)c1` [Ex 258, 4-Methoxy-N,2,6-trimethyl-N-{[5-({4-[(1-methylpiperidin-4-yl)methyl]piperazin-1-yl}carbonyl)-1,3,4-oxadiazol-2-yl]methyl}benzenesulfonamide], the IC50 is less than 10 nM.

`COc1cc(C)c(S(=O)(=O)N(C)Cc2nnc(C(=O)N3CCN(CCCN4CCCC4)CC3)o2)c(C)c1` [Ex 259, 4-Methoxy-N,2,6-trimethyl-N-[(5-{[4-(3-pyrrolidin-1-ylpropyl)piperazin-1-yl]carbonyl}-1,3,4-oxadiazol-2-yl)methyl]benzenesulfonamide]: the IC50 is 10 to 100 nM.

As to `COc1cc(C)c(S(=O)(=O)N(C)Cc2nnc(C(=O)N3CCN(Cc4ccc(OC)nc4)CC3)o2)c(C)c1` [Ex 260, 4-Methoxy-N-{[5-({4-[(6-methoxypyridin-3-yl)methyl]piperazin-1-yl}carbonyl)-1,3,4-oxadiazol-2-yl]methyl}-N,2,6-trimethylbenzenesulfonamide trifluoroacetate], the IC50 lay in the range of 10 to 100 nM.
